Laboratory results taken from US20070077202A1, “Histostain composition for endoscope” (PENTAX Corporation, priority 2005, published 2007).

Legend:
large intestine tissue [1] = assay: relative fluorescence brightness estimated from spectral sensitivity of the confocal microscope; assay type: in vivo, mouse; conditions: same dye concentration
Description: That is, this function can be used for relative estimation of the fluorescence intensity of each of the samples having different brightness levels.
The fluorescence brightness of a sample with Sodium fluorescein relative to Monascus color (yellow), as calculated on the basis of such spectral sensitivity as to give the same degree of fluorescence brightness, was 0.74 times after 10 minutes or 0.84 times after 60 minutes.

large intestine tissue [2] = assay: staining test by perfusion through the heart of a mouse; assay type: in vivo; conditions: 1 mg/mL
Description: A staining test was carried out with Monascus color (yellow) (1 mg/mL, 2 mL) by perfusion thereof through the heart of a mouse. […] The permeability of stain by this perfusion staining method was higher than the method in which the excised tissue is stained (Example 2) or the method in which colors are injected through the anus (Example 7). […] That is, the well-stained sites were the same as in Examples 7 and 8.
Sodium fluorescein (1 mg/mL) was also examined in the same manner as in Example 9.

mouse large intestine [3] = assay: mouse large intestine staining with xanthomonasin A, excised after 1 minute and 10 minutes; assay type: in vivo; conditions: 1 mg/mL saline, 100 μL
Description: Mice (ddY, 9-week-old, male) were anesthetized, and 100 μL xanthomonasin A (centrifuged and dried sample, 1 mg/mL saline) was injected via an injection needle into the large intestine lumen for staining. The mouse large intestines were excised after 1 minute and 10 minutes respectively, and the samples were observed under a confocal microscope (TCS SP2).

mouse large intestine [4] = assay: mouse large intestine staining test with purified xanthomonasin A, confocal image; assay type: in vivo; conditions: 10 mg/mL saline, 100 μL, 5 minutes
Description: Using purified xanthomonasin A in Example 10, a mouse large intestine staining test was carried out. A mouse (ddY, 9-week-old, male) was anesthetized, and 100 μL xanthomonasin A (centrifuged and dried sample, 10 mg/mL saline) was injected via an injection needle into the large intestine lumen for staining. After 5 minutes, the mouse large intestine was excised and its confocal image was taken and observed under a confocal microscope (TCS SP2).

mouse large intestine [5] = assay: mouse large intestine staining test with xanthomonasin A, frozen section observation; assay type: in vivo; conditions: 10 mg/mL saline, 100 μL, 5 minutes; 6 μm frozen section
Description: Purified xanthomonasin A in Example 10 was used in a mouse large intestine staining test and for observing a frozen section. A mouse (ddY, 11-week-old, male) was anesthetized, and 100 μL xanthomonasin A (centrifuged and dried sample, 10 mg/mL saline) was injected via an injection needle into the large intestine lumen for staining. After 5 minutes, the mouse large intestine was excised, frozen and embedded in OCT compound, and the frozen section thus obtained was cut into thin slices each having a thickness of 6 μm. The thin slices were observed by hematoxylin-eosin staining and also observed for fluorescence by staining with xanthomonasin A.

O=C([O-])c1ccccc1-c1c2ccc(=O)cc-2oc2cc([O-])ccc12.[Na+].[Na+] [Sodium fluorescein] was tested, and the “fluorescence brightness relative to Monascus color (yellow)” value (large intestine tissue [1]; after 10 minutes) was 0.74 times, the “fluorescence brightness relative to Monascus color (yellow)” value (large intestine tissue [1]; after 60 minutes) was 0.84 times and the “staining of cell nuclei” value (large intestine tissue [2]) was “could not be judged”. For the same compound, the “staining of cells constituting the mucosa” value (large intestine tissue [2]) was “many of the cells constituting the mucosal tissue were stained well” and the “staining of mucus components of goblet cells” value (large intestine tissue [2]) was “not stained”.
With C/C=C/[C@]1(O)Cc2c(oc(O)c2C=O)C2=C(C(=O)CCCCC)C(=O)O[C@@]21C [xanthomonasin A] the “stained sites, 1 minute versus 10 minutes” value (mouse large intestine [3]) was “identical in respect of stained sites”, the visibility (mouse large intestine [3]; stained for 10 minutes) was “could be further improved” and the “quality of sectional images” value (mouse large intestine [4]) was “very vivid sectional images were obtained”. The “staining of epithelial cells” value (mouse large intestine [5]) was “stained relatively excellently” and the “staining of muscular plate” value (mouse large intestine [5]) was “excellently stained”.
